Assay results published in patent US20040082585A1, “Prodrugs of substituted polycyclic compounds useful for selective inhibition of the coagulation cascade” (Pharmacia Corporation, priority 2001, published 2004).

Experiments:
[1] = Metabolic stability assay, hepatic S9 fraction incubation (rat); format: in vitro ADME; conditions: rat liver S9 fraction 2.0 mg/mL protein, 1.0 μM substrate, 1.0 mM NADPH, 37° C., 30 minutes
Experimental: (§1) In order to determine the metabolic stability of each of the tested compounds, the following assay conditions were used: 100 mM-phosphate buffer, 1.0 mM NADPH, 3.3 mM magnesium chloride, 2.0 mg/mL protein from Hepatic S9 Fraction and 1.0 μM of substrate.
(§2) The assay was performed on a 96-well conical shaped plate with a volume of 200 μL, after addition of methanol. For each species, a set of samples was prepared as shown below (volumes are in μL).
(§3) The plate was sealed and incubated in a Thermal Mixer at 37° C. for 30 minutes at 400 rpm. 100 μL of methanol was added to each well and the plate was mixed for several minutes and then covered with an aluminum seal. Finally, the plate was centrifuged at 1000 rpm for 10 minutes.
(§4) The assay was analyzed using liquid chromatography and positive ion electrospray mass spectrometry. The chromatography column used was Agilent Zorbax SB-C18 (3.0×150 mm, 5 μm) with a flow rate of 0.5 mL/min.
(§5) Calculations were performed to determine the percent remaining, which is calculated by dividing the Peak Area Ratio of the analyte measured in the active protein versus the Peak Area Ratio of the analyte measured in the inactivated protein sample. The Peak Area Ratio is defined as the peak area of the analyte divided by the peak area of the internal standard. Analyte is defined as the substrate of a specific measurable metabolite.

[2] = Metabolic stability assay, hepatic S9 fraction incubation (human); format: in vitro ADME; conditions: human liver S9 fraction 2.0 mg/mL protein, 1.0 μM substrate, 1.0 mM NADPH, 37° C., 30 minutes
Experimental: as §1, §2, §3, §4, §5

[3] = Bioavailability and prodrug conversion in male rats; format: in vivo; conditions: Crl:CD(SD)BR, rat, blood, fasted, oral 10 mg free base of active moiety per kg, IV 1 mg free base/kg, LC-MS/MS, read-out: BA (bioavailability of prodrug after oral adminstration)
Experimental: Healthy male rats [Crl:CD(SD)BR] were obtained from Charles River Breeding Laboratory (Canada). […] The animals weighed 250 to 320 g and were individually identified by labeling on each metabolism cage. The rats were housed in individual metabolism cages during dosing and sample collections. The animals were acclimated to a diet of Purina Rodent Chow #5002 (Ralston Purina, St. Louis, Mo.) for at least 5 days and were fasted for 15-20 hours prior to the administration of the compound. Food was available from 4 hours after dose administration and ad libitum throughout the remainder of the study.
Each animal received the prodrug orally at an equivalent dose of 10 mg of free base of active moiety per kg of body weight or active moiety orally at an equivalent dose of 10 mg equivalent free base per kg body weight. For intravenous (IV) study, the animals received 1 mg free base/kg body weight. Sufficient amount of the test article was dissolved in appropriate vehicle (See table below) such that the final concentration of dose solution was 2.0 mg free base/mL and 0.5 mg free base/mL for oral and IV doses, respectively. The dose volume was 5 mL/kg and 2 mL/kg for oral and IV doses, respectively
Blood samples were collected from the jugular vein at specified time intervals. Concentrations of test article and/or prodrug were analyzed using a LC-MS/MS procedure.
Model independent pharmacokinetic parameters (Cmax, Tmax, AUC, T1/2, CL, Vss) were obtained using Watson computer program. The bioavailability (BA) was calculated as follows: [formula]
The percentages of conversion of prodrug to active moiety was calculated using the following equation: [formula]
“AUC” represents area under the curve.

Row | SMILES | S9 Rat (percent remaining) [1] [%] | S9 Hum. (percent remaining) [2] [%] | bioavailability [3] [%]
1 | CCCCOC(=O)O/N=C(\N)c1ccc(CNC(=O)Cn2c(-c3cc(N)cc(C(F)(F)F)c3)cnc(NC(C)C)c2=O)cc1 [Compound 11] | 44 | 40 | 
2 | COC(=O)c1cc(N)cc(-c2cnc(NC(C)C)c(=O)n2CC(=O)NCc2ccc(C(=N)NO)cc2)c1 [Compound 12] |  |  | 3
3 | CC(C)COC(=O)O/N=C(\N)c1ccc(CNC(=O)Cn2c(-c3cc(N)cc(C(F)(F)F)c3)cnc(NC(C)C)c2=O)cc1 [Compound 16] | 0 | 0 | 
4 | CC(C)Nc1ncc(-c2cc(N)cc(NC(=O)C(C)C)c2)n(CC(=O)NCc2ccc(C(=N)NO)cc2)c1=O [Compound 18] | 36 | 5 | 
5 | CC(C)Nc1ncc(-c2cc(N)cc(C(F)(F)F)c2)n(CC(=O)NCc2ccc(/C(N)=N/OC(=O)OC(C)C)cc2)c1=O [Compound 20] |  |  | 2
6 | COc1ccc(OC(=O)O/N=C(\N)c2ccc(CNC(=O)Cn3c(-c4cc(N)cc(C(F)(F)F)c4)cnc(NC(C)C)c3=O)cc2)cc1 [Compound 24] | 1 | 1 | 
7 | CC(C)Nc1ncc(-c2cc(N)cc(C(F)(F)F)c2)n(CC(=O)NCc2ccc(C(=N)NOCc3ccccc3)cc2)c1=O [Compound 29] | 14 | 17 | 

More lines, now with the values ahead:

Row | S9 Rat (percent remaining) [1] [%] | S9 Hum. (percent remaining) [2] [%] | bioavailability [3] [%] | SMILES
8 | 11 | 2 |  | CC(C)Nc1ncc(-c2cc(N)cc(C(F)(F)F)c2)n(CC(=O)NCc2ccc(C(=N)NO)cc2)c1=O [Compound 1]
9 | 0 | 0 | 17 | CONC(=N)c1ccc(CNC(=O)Cn2c(-c3cc(N)cc(C(F)(F)F)c3)cnc(NC(C)C)c2=O)cc1 [Compound 4]
10 | 13 | 0.50 | 5 | CC(C)Nc1ncc(-c2cc(N)cc(C(F)(F)F)c2)n(CC(=O)NCc2ccc(C3=NC(C)(C)ON3)cc2)c1=O [Compound 5]
11 |  |  | 7 | CC(C)Nc1ncc(-c2cc(N)cc(C(F)(F)F)c2)n(CC(=O)NCc2ccc3c(N)noc3c2)c1=O [Compound 6]
12 | 54 | 5 |  | CCOC(=O)O/N=C(\N)c1ccc(CNC(=O)Cn2c(-c3cc(N)cc(C(F)(F)F)c3)cnc(NC(C)C)c2=O)cc1 [Compound 7]
13 | 3 | 1 | 20 | CCONC(=N)c1ccc(CNC(=O)Cn2c(-c3cc(N)cc(C(F)(F)F)c3)cnc(NC(C)C)c2=O)cc1 [Compound 8]
14 | 0 | 0 | 1 | CC(C)Nc1ncc(-c2cc(N)cc(C(F)(F)F)c2)n(CC(=O)NCc2ccc3c(N)nc(=O)oc3c2)c1=O [Compound 9]
15 | 1 | 1 | 1 | CCNC(=O)O/N=C(\N)c1ccc(CNC(=O)Cn2c(-c3cc(N)cc(C(F)(F)F)c3)cnc(NC(C)C)c2=O)cc1 [Compound 14]
16 | 25 | 39 | 4 | CC(C)Nc1ncc(-c2cc(N)cc(C(F)(F)F)c2)n(CC(=O)NCCc2c(F)c(F)c3c(N)noc3c2F)c1=O [Compound 15]
17 | 13 | 3 |  | CC(C)Nc1ncc(-c2cc(N)cc(C(F)(F)F)c2)n(CC(=O)NCc2ccc(C3=NOC(C)(c4ccccc4)N3)cc2)c1=O (stereo not shown) [Compound 25]
